Laboratory results taken from US10183962B2, “Synthetic oligomers of Neisseria meningitis serogroup X and process of preparing them” (MSD WELLCOME TRUST HILLEMAN LA[…]. LTD., priority 2014, dated 2019).

Test system: rabbit antiserum against N. meningitidis serogroup X (anti-Men-X antibodies binding to bacterial Men-X polysaccharide)
Test: competition (inhibition) ELISA, antigenicity of synthetic Men-X tetramer and its TT conjugate
Conditions: antigen at 10-1000 μg oligosaccharide/ml; antiserum diluted eight thousand fold; relative to no antigen control; FIG. 1, alpha anomer, triplicate

## 6-Aminohexyl (2-acetamido-2-deoxy-α-D-glucopyranosyl phosphate)-(1→4)-(2-acetamido-2-deoxy-α-D-glucopyranosyl phosphate)-(1→4)-(2-acetamido-2-deoxy-α-D-glucopyranosyl phosphate)-(1→4)-2-acetamido-2-deoxy-α-D-glucopyranoside, tris-sodium salt [Men X Tetramer 1]
  percentage inhibition of binding of anti-Men-X antibodies to bacterial Men-X polysaccharide coated on plate: up to 68%
